Experimental data published in patent publication US8198456B2, “Dihydropyridine derivatives as useful as protein kinase inhibitors” (Bayer Intellectual Property GmbH, priority 2006, dated 2012).
Where a name gives a salt, the structure may show the parent alone.

molecular target: T1, recombinant human c-MET kinase enzyme domain (Homo sapiens, UniProt P08581); assay: c-MET receptor tyrosine kinase Homogeneous Time Resolved Fluorescence assay (HTRF); format: biochemical; conditions: Biological Example 1 and/or Biological Example 2
T1 construct: Recombinant c-Met kinase domain (amino acids 960-1390); His (N); made in house; host or cells: baculovirus expression system (insect cells; SF21 is named only for the alternative format)
How it was run: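 His-tagged c-Met kinase domain (aa 960-1390, baculovirus) phosphorylated biotinylated poly-Glu-Tyr (37 nM) with 20 μM ATP in HEPES pH 7.4, Mg/Mn, DTT, 1% DMSO, 20 min at ambient temperature, EDTA-stopped. HTRF read (PT66-Eu/streptavidin-XL665, 665/620 nm ratio) after 4 h; IC50 from eight 1:3.16 dilutions.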

T1 sequence (P08581 960-1390): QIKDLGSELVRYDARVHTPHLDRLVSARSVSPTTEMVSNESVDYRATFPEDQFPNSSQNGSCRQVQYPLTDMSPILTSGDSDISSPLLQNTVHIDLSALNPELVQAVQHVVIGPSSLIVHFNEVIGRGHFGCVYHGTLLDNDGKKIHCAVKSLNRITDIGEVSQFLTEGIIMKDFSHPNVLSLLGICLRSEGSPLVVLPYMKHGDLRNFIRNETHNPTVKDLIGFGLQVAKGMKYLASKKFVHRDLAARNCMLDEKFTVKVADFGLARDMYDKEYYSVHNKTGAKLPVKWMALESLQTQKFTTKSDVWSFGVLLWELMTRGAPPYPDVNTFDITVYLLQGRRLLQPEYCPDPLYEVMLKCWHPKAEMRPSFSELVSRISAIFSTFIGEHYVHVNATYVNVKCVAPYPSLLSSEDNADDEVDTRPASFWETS

IC50	SMILES
500 to 2500 nM	CNC(=O)c1cccc(C2C(C#N)=C(C)NC(c3ccc(O)cc3)=C2C#N)c1 (stereo not drawn) [compound 239, 3-[3,5-dicyano-1,4-dihydro-2-(4-hydroxyphenyl)-6-methyl-4-pyridinyl]-N-methyl-benzamide]
500 to 2500 nM	CC1=C(C#N)C(c2cccc(C(=O)Nc3ccc(C(F)(F)F)cn3)c2)C(C#N)=C(C)N1 [compound 60, 3-(3,5-dicyano-1,4-dihydro-2,6-dimethyl-4-pyridinyl)-N-[5-(trifluoromethyl)-2-pyridinyl]-benzamide]
100 to 500 nM	COC(=O)c1cccc(C2C(C#N)=C(C)NC(c3ccc(N)cc3)=C2C#N)c1 (stereo not drawn) [compound 236, 3-[2-(4-aminophenyl)-3,5-dicyano-1,4-dihydro-6-methyl-4-pyridinyl]-benzoic acid, methyl ester]
< 100 nM	CC(=O)Nc1n[nH]c2ccc(C3C(C#N)=C(C)NC(C)=C3C#N)cc12 [compound 89, N-[5-(3,5-dicyano-1,4-dihydro-2,6-dimethyl-4-pyridinyl)-1H-indazol-3-yl]-acetamide]
100 to 500 nM	CC1=C(C#N)C(c2cccc(C(=O)Nc3cccnc3)c2)C(C#N)=C(C)N1 [compound 21, 3-(3,5-dicyano-1,4-dihydro-2,6-dimethyl-4-pyridinyl)-N-3-pyridinyl-benzamide]
< 100 nM	CC1=C(C#N)C(c2ccc3[nH]nc(-c4cnco4)c3c2)C(C#N)=C(C)N1 [compound 177, 1,4-dihydro-2,6-dimethyl-4-[3-(5-oxazolyl)-1H-indazol-5-yl]-3,5-pyridinedicarbonitrile]
< 100 nM	CC1=C(C#N)C(c2ccc3[nH]nc(NCc4cnc[nH]4)c3c2)C(C#N)=C(C)N1 [compound 150, 1,4-dihydro-4-[3-[(1H-imidazol-4-ylmethyl)amino]-1H-indazol-5-yl]-2,6-dimethyl-3,5-pyridinedicarbonitrile]
100 to 500 nM	CC1=C(C#N)C(c2cccc(C(=O)Nc3nccs3)c2)C(C#N)=C(C)N1 [compound 61, 3-(3,5-dicyano-1,4-dihydro-2,6-dimethyl-4-pyridinyl)-N-2-thiazolyl-benzamide]
< 100 nM	CC1=C(C#N)C(c2ccc3[nH]ncc3c2)C(C#N)=C(c2cccc([N+](=O)[O-])c2)N1 (stereo not drawn) [compound 250, 1,4-dihydro-4-(1H-indazol-5-yl)-2-methyl-6-(3-nitrophenyl)-3,5-pyridinedicarbonitrile]
100 to 500 nM	COC(=O)c1cccc(C2C(C#N)=C(C)NC(c3ccc(O)cc3)=C2C#N)c1 (stereo not drawn) [compound 234, 3-[3,5-dicyano-1,4-dihydro-2-(4-hydroxyphenyl)-6-methyl-4-pyridinyl]-benzoic acid, methyl ester]
< 100 nM	CC1=C(C#N)C(c2ccc3[nH]nc(/C=N/O)c3c2)C(C#N)=C(C)N1 [compound 149, 1,4-dihydro-4-[3-[(E)-(hydroxyimino)methyl]-1H-indazol-5-yl]-2,6-dimethyl-3,5-pyridinedicarbonitrile]
< 100 nM	CC1=C(C#N)C(c2ccc3[nH]nc(NCc4ccc(N5CCOCC5)cc4)c3c2)C(C#N)=C(C)N1 [compound 163, 1,4-dihydro-2,6-dimethyl-4-[3-[[[4-(4-morpholinyl)phenyl]methyl]amino]-1H-indazol-5-yl]-3,5-pyridinedicarbonitrile]
< 100 nM	CC1=C(C#N)C(c2ccc3[nH]nc(NCc4ccccc4)c3c2)C(C#N)=C(C)N1 [compound 105, 1,4-dihydro-2,6-dimethyl-4-[3-[(phenylmethyl)amino]-1H-indazol-5-yl]-3,5-pyridinedicarbonitrile]
< 100 nM	CC1=C(C#N)C(c2ccc3[nH]nc(-c4ccc(N5CCN(CCO)CC5)cc4)c3c2)C(C#N)=C(C)N1 [compound 152, 1,4-dihydro-4-[3-[4-[4-(2-hydroxyethyl)-1-piperazinyl]phenyl]-1H-indazol-5-yl]-2,6-dimethyl-3,5-pyridinedicarbonitrile]
< 100 nM	CC1=C(C#N)C(c2ccc3[nH]ncc3c2)C(C#N)=C(c2ccc(NCCN3CCOCC3)nc2)N1 (stereo not drawn) [compound 274, 1,4-dihydro-4-(1H-indazol-5-yl)-6-methyl-6′-[[2-(4-morpholinyl)ethyl]amino]-[2,3′-bipyridine]-3,5-dicarbonitrile]
< 100 nM	CC1=C(C#N)C(c2ccc3[nH]ncc3c2)C(C#N)=C(c2ccnc(NCCN3CCOCC3)c2)N1 (stereo not drawn) [compound 278, 1,4-dihydro-4-(1H-indazol-5-yl)-6-methyl-2′-[[2-(4-morpholinyl)ethyl]amino]-[2,4′-bipyridine]-3,5-dicarbonitrile]
500 to 2500 nM	COC(=O)Nc1cccc(C2C(C#N)=C(C)NC(C)=C2C#N)c1 [compound 34, [3-(3,5-dicyano-1,4-dihydro-2,6-dimethyl-4-pyridinyl)phenyl]-carbamic acid, methyl ester]
< 100 nM	CC1=C(C#N)C(c2cccc(C(=O)Nc3ccccn3)n2)C(C#N)=C(C)N1 [compound 192, 3′,5′-dicyano-1′,4′-dihydro-2′,6′-dimethyl-N-2-pyridinyl-[2,4′-bipyridine]-6-carboxamide]

IC50	SMILES
500 to 2500 nM	COC(=O)c1cccc(C2C(C#N)=C(C)NC(c3ccc([N+](=O)[O-])cc3)=C2C#N)c1 (stereo not drawn) [compound 233, 3-[3,5-dicyano-1,4-dihydro-2-methyl-6-(4-nitrophenyl)-4-pyridinyl]-benzoic acid, methyl ester]
< 100 nM	CC1=C(C#N)C(c2ccc3[nH]nc(NCCN4CCCC4)c3c2)C(C#N)=C(C)N1 [compound 309, 1,4-dihydro-2,6-dimethyl-4-[3-[[2-(1-pyrrolidinyl)ethyl]amino]-1H-indazol-5-yl]-3,5-pyridinedicarbonitrile]
< 100 nM	CC1=C(C#N)C(c2ccc3[nH]nc(C)c3c2)C(C#N)=C(C)N1 [compound 81, 1,4-dihydro-2,6-dimethyl-4-(3-methyl-1H-indazol-5-yl)-3,5-pyridinedicarbonitrile]
< 100 nM	CC1=C(C#N)C(c2ccc3[nH]nc(C(=O)NCCCN(C)C)c3c2)C(C#N)=C(C)N1 [106.1, 5-(3,5-dicyano-2,6-dimethyl-1,4-dihydro-pyridin-4-yl)-1H-indazole-3-carboxylic acid (3-dimethylamino-propyl)-amide, TFA salt]
< 100 nM	CC1=C(C#N)C(c2ccc3[nH]ncc3c2)C(C#N)=C(C)N1C [compound 289, 1,4-dihydro-4-(1H-indazol-5-yl)-1,2,6-trimethyl-3,5-pyridinedicarbonitrile]
< 100 nM	CC1=C(C#N)C(c2ccc3[nH]nc(-c4ccc(N5CCN(C)CC5)cc4)c3c2)C(C#N)=C(C)N1 [compound 140, 1,4-dihydro-2,6-dimethyl-4-[3-[4-(4-methyl-1-piperazinyl)phenyl]-1H-indazol-5-yl]-3,5-pyridinedicarbonitrile]
< 100 nM	CC1=C(C#N)C(c2cccc(C(=O)Nc3ccccn3)c2)C(C#N)=C(C)N1 [compound 43, 3-(3,5-dicyano-1,4-dihydro-2,6-dimethyl-4-pyridinyl)-N-2-pyridinyl-benzamide]
100 to 500 nM	CC1=C(C#N)C(c2ccc3c(c2)c(N)nn3C(=O)OC(C)(C)C)C(C#N)=C(C)N1 [compound 92, 3-amino-5-(3,5-dicyano-1,4-dihydro-2,6-dimethyl-4-pyridinyl)-1H-indazole-1-carboxylic acid tert-butyl ester]
< 100 nM	CON(C)C(=O)c1n[nH]c2ccc(C3C(C#N)=C(C)NC(C)=C3C#N)cc12 [compound 143, 5-(3,5-dicyano-1,4-dihydro-2,6-dimethyl-4-pyridinyl)-N-methoxy-N-methyl-1H-indazole-3-carboxamide]
< 100 nM	CC1=C(C#N)C(c2ccc3[nH]nc(N)c3c2)C(C#N)=C(c2ccccc2)N1 (stereo not drawn) [compound 259, 4-(3-amino-1H-indazol-5-yl)-1,4-dihydro-2-methyl-6-phenyl-3,5-pyridinedicarbonitrile]
< 100 nM	CC1=C(C#N)C(c2ccc3[nH]nc(CN4CCN(CCO)CC4)c3c2)C(C#N)=C(C)N1 [compound 166, 1,4-dihydro-4-[3-[[4-(2-hydroxyethyl)-1-piperazinyl]methyl]-1H-indazol-5-yl]-2,6-dimethyl-3,5-pyridinedicarbonitrile]
< 100 nM	CC1=C(C#N)C(c2ccc3[nH]ncc3c2)C(C#N)=C(c2cccnc2)N1 (stereo not drawn) [compound 266, 1,4-dihydro-4-(1H-indazol-5-yl)-6-methyl-[2,3′-bipyridine]-3,5-dicarbonitrile]
< 100 nM	COC(=O)c1ccc(CNc2n[nH]c3ccc(C4C(C#N)=C(C)NC(C)=C4C#N)cc23)cc1 [compound 135, 4-[[[5-(3,5-dicyano-1,4-dihydro-2,6-dimethyl-4-pyridinyl)-1H-indazol-3-yl]-amino]methyl]-benzoic acid methyl ester]
< 100 nM	CC1=C(C#N)C(c2ccc3[nH]nc(C)c3c2)C(C#N)=C(C)N1C [compound 306, 1,4-dihydro-1,2,6-trimethyl-4-(3-methyl-1H-indazol-5-yl)-3,5-pyridinedicarbonitrile]
< 100 nM	CC1=C(C#N)C(c2ccc3[nH]ncc3c2)C(C#N)=C(c2ccccc2)N1 (stereo not drawn) [compound 249, 1,4-dihydro-4-(1H-indazol-5-yl)-2-methyl-6-phenyl-3,5-pyridinedicarbonitrile]
100 to 500 nM	CC1=C(C#N)C(c2cccc(C(=O)Nc3ccc(C)cn3)c2)C(C#N)=C(C)N1 [compound 51, 3-(3,5-dicyano-1,4-dihydro-2,6-dimethyl-4-pyridinyl)-N-(5-methyl-2-pyridinyl)-benzamide]
< 100 nM	CC1=C(C#N)C(c2ccc3[nH]nc(C(=O)N(C)C)c3c2)C(C#N)=C(C)N1 [114.1, 5-(3,5-dicyano-2,6-dimethyl-1,4-dihydro-pyridin-4-yl)-1H-indazole-3-carboxylic acid dimethylamide, TFA salt]
< 100 nM	CC1=C(C#N)C(c2ccc3[nH]nc(-c4cccs4)c3c2)C(C#N)=C(C)N1 [compound 178, 1,4-dihydro-2,6-dimethyl-4-[3-(2-thienyl)-1H-indazol-5-yl]-3,5-pyridinedicarbonitrile]
